# Test results published in patent US20130029970A1 (priority 2009, published 2013).
# Several values for one entry are separate records, joined by “and”; a condition that tells them apart may be missing. Identical values can stand only once.
# Legend:
# [1] = tested on: CFA induced inflammatory pain in the rat; assay: Complete Freund's Adjuvant (CFA) induced inflammatory pain model; assay type: in vivo
# Description: In this rat model of inflammatory pain, 100 uL of CFA diluted 1:1 with phosphate buffered saline was injected into the subplantar region of the right hind paw on Day 1. On day 3, test compounds were administered orally and rats were assessed for their reaction to a mechanical stimuli applied via an Analgesy® meter. Injection of CFA increased the rats' reactivity to painful stimuli and this was reflected in a decrease in the amount of pressure they could tolerate prior to withdrawing their paw from the apparatus (hyperalgesia). An anti-hyperalgesic activity of the test compound was denoted by an increase in the amount of pressure they can tolerate prior to withdrawing their paw from the apparatus. The mean±SEM for each treatment group was determined and a Dunnett test was applied for comparison between vehicle and treated groups. Differences were considered significant at P<0.05. (see Bertorelli et al. 1999 Brit Journ Pharmacol 128:1252).
# [2] = tested on: PBQ-induced writhing in the mouse; assay: Phenylbenzoquinone-induced (PBQ) writhing model
smiles,measurement,setting,value
COc1ccc(C(=O)c2cc3cc(C)n(CCN4CCOCC4)c3s2)cc1 [Compound I-36],Post CFA PWT (grams),[1]; 3 mg/kg PO,114.3 ± 11.8 grams
same,Post CFA PWT (grams),[1]; 10 mg/kg PO,90.7 ± 10.4 grams
same,Post CFA PWT (grams),[1]; 30 mg/kg PO,157.3 ± 11.4 grams
same,Post CFA PWT (grams),[1]; 56 mg/kg PO,191 ± 12.1 grams
same,Number of Writhes,"[2]; Dose 3, PO",14.5 ± 1.59
same,Number of Writhes,"[2]; Dose 10, PO",12.1 ± 2.8
same,Number of Writhes,"[2]; Dose 30, PO",7.3 ± 2.5
Cc1cc2cc(C(=O)c3cccc(Cl)c3Cl)sc2n1CCCNS(C)(=O)=O [Compound I-37],Number of Writhes,"[2]; Dose 30, PO",13.0 ± 1.65
Cc1cc2cc(C(=O)c3cccc(Cl)c3Cl)sc2n1S(=O)(=O)N(C)C [Compound I-41],Number of Writhes,"[2]; Dose 30, IP",5.91 ± 2.04
CCS(=O)(=O)n1c(C)cc2cc(C(=O)c3cccnc3Cl)sc21 [Compound I-43],Number of Writhes,"[2]; Dose 30, PO",13.8 ± 1.88
COc1ccc(C(=O)c2cc3cc(C)n(CCCNS(C)(=O)=O)c3s2)cc1 [Compound I-44],Post CFA PWT (grams),[1]; 10 mg/kg PO,164.4 ± 8.4 grams
same,Post CFA PWT (grams),[1]; 30 mg/kg PO,153.7 ± 10.7 grams
same,Post CFA PWT (grams),[1]; 56 mg/kg PO,150 ± 13.8 grams
same,Number of Writhes,"[2]; Dose 3, PO",13.9 ± 1.4
same,Number of Writhes,"[2]; Dose 10, PO",9.4 ± 2.6
same,Number of Writhes,"[2]; Dose 30, PO",8.25 ± 2.54 and 9.7 ± 1.7
COc1ccc(C(=O)c2cc3cc(C)n(CCN4CCOCC4)c3s2)cn1 [Compound I-58],Post CFA PWT (grams),[1]; 60 mg/kg PO,170.3 ± 19.7 grams
same,Number of Writhes,"[2]; Dose 30, IP",1.1 ± 0.38
same,Number of Writhes,"[2]; Dose 30, PO",15.9 ± 2.7
COc1ccc(C(=O)c2cc3cc(C)n(CCN4CCCCC4)c3s2)cc1 [Compound I-78],Post CFA PWT (grams),[1]; 60 mg/kg PO,181.7 ± 22.3 grams
CCOc1ccc(C(=O)c2cc3cc(C)n(CCN4CCOCC4)c3s2)c(F)c1 [Compound I-89],Post CFA PWT (grams),[1]; 60 mg/kg PO,178.7 ± 19.6 grams
CCOc1ccc(C(=O)c2cc3cc(C)n(CCCNS(C)(=O)=O)c3s2)c(F)c1 [Compound I-95],Post CFA PWT (grams),[1]; 60 mg/kg PO,111.7 ± 20.5 grams
Cc1cc2cc(C(=O)c3ccc(OC(C)C)cc3)sc2n1CCN1CCOCC1 [Compound I-111],Post CFA PWT (grams),[1]; 60 mg/kg PO,140.7 ± 13.7 grams
Cc1ccc(C(=O)c2cc3cc(C)n(CCN4CCOCC4)c3s2)cc1 [Compound I-124],Post CFA PWT (grams),[1]; 60 mg/kg PO,196.7 ± 27.3 grams
COc1ccc(C(=O)c2cc3cc(C)n(CC4CCOCC4)c3s2)cn1 [Compound I-144],Number of Writhes,"[2]; Dose 3, PO",5.04 ± 1.8
same,Number of Writhes,"[2]; Dose 10, PO",3.24 ± 1.08
same,Number of Writhes,"[2]; Dose 30, PO",1.8 ± 0.72
